How the values were obtained:
CYP2E1 [1] = target: T1, CYP2E1 (Homo sapiens, UniProt P05181); test: CYP2E1 inhibition in pooled human liver microsomes (chlorzoxazone 6-hydroxylation); format: in vitro ADME; settings: for IC50: 0-100 μM anemarsaponin BII
T1 construct: marker reactions with specific substrates in human liver microsomes (HLMs); from tissue; host or cells: pooled human liver microsomes
Description: (§1) The activity of CYP450s was evaluated by the marker reactions with specific substrates in human liver microsomes (HLMs). The reaction conditions are summarized in Table 1 according to previous studies. The concentration of anemarsaponin BII was 100 μM with the following concentration of specific inhibitors: 10 μM furafylline for CYP1A2, 10 μM tranylcypromine for CYP2A6, 1 μM ketoconazole for CYP3A4, 5 μM montelukast for CYP2C8, 10 μM sulfaphenazole for CYP2C9, 50 μM tranylcypromine for CYP2C19, 10 μM quinidine for CYP2D6, 50 μM clomethiazole for CYP2E1. 200 μL incubation system included 100 mM potassium phosphate buffer (pH 7.4), NADPH generating system (1 mM NADP^+, 10 mM glucose-6-phosphate, 1 U/mL of glucose-6-phosphate dehydrogenase, and 4 mM MgCl2), the appropriate concentration of HLMs, a corresponding probe substrate and anemarsaponin BII (or positive inhibitor for different probe reactions). The HADPH-generating system was added before the incubation to preincubate for 3 min at 37 °C. The reaction was terminated with 100 μL acetonitrile (10% trichloroacetic acid for CYP2A6). Then, the mixture was centrifuged at 12,000 rpm for 10 min, and an aliquot (50 μL) of supernatant was transferred for HPLC analysis with the help of the Agilent 1260 series instrument with DAD and FLD detector according to previous studies. The HPLC conditions for analysis of corresponding metabolites of CYP isoforms are summarized in Table 2 based on previous studies (Lang et al. [2017]; Zhang et al. [2017]).
Incubations were performed in triplicate, and results were represented with the mean value. The final microsomal protein concentration and incubation times for the different probe reactions are summarized in Table 1 based on previous studies (Lang et al. [2017]; Wang et al. [2019]).
The effect of anemarsaponin BII on the activity of CYPs was evaluated in pooled human liver microsomes according to previous studies (Dong et al. [2018]; Wang et al. [2019]). The residual activity of eight CYP isoforms was first detected with 100 μM anemarsaponin BII in HLMs. Next, CYPs of which the activity was inhibited by anemarsaponin BII was incubated with 0, 2.5, 5, 10, 25, 50 and 100 μM anemarsaponin BII to explore the values of half inhibition concentration (IC50). Additionally, 0–50 μM anemarsaponin BII was incubated with various concentration of probe substrates (20–100 μM testosterone for CYP3A4, 10–50 μM dextromethorphan for CYP2D6, and 25–250 μM chlorzoxazone for CYP2E1) to obtain the values of KI.
(§2) The enzyme kinetic parameters for the probe reaction were estimated from the best fit line, using least-squares linear regression of the inverse substrate concentration versus the inverse velocity (Lineweaver–Burk plots), and the mean values were used to calculate Vmax and Km. Inhibition data from the experiments that were conducted using multiple compound concentrations were represented by Dixon plots, and inhibition constant (KI) values were calculated using non-linear regression according to the following equation: Competitive inhibition:v=(VmaxS)/(Km(1+I/KI)+S), Non-competitive inhibition:v=(VmaxS)/[Km+S(1+I/KIKi)] where I is the concentration of the compound, KI is the inhibition constant, S is the concentration of the substrate, and Km is the substrate concentration at half the maximum velocity (Vmax) of the reaction. The mechanism of the inhibition was inspected using the Lineweaver–Burk plots and the enzyme inhibition models. […]

[2] = rat, in vivo, 171.61 mg/kg; cited from earlier work
CYP2E1 [3] = target: T1, CYP2E1; test: Time-dependent inhibition of CYP2E1 in HLMs; format: in vitro ADME; settings: 20 μM anemarsaponin BII, data not shown
Description: (§3) The effect of incubation time on the inhibition of anemarsaponin BII was evaluated with 20 μM anemarsaponin BII. HLMs were preincubated with anemarsaponin BII and the NADPH-generating system for 30 min at 37 °C. Then, an aliquot (20 μL) was transferred to another incubation tube (final volume 200 μL) containing an NADPH-generating system and probe substrates, of which final concentrations were approximate to Km. After incubating for 0, 5, 10, 15 and 30 min, the reaction was terminated with 100 μL acetonitrile internal standard mix and placed on ice. The metabolites were analyzed by HPLC. To obtain the values of KI and Kinact, another incubation with a higher concentration of substrates (approximately 4-fold Km values) was performed in the presence of 0–50 μM anemarsaponin BII for 0, 5, 10, 15 and 30 min.

CYP3A4 [4] = target: T2, CYP3A4 (Homo sapiens, UniProt P08684); test: Time-dependent inhibition of CYP3A4 in HLMs; format: in vitro ADME
T2 construct: marker reactions with specific substrates in human liver microsomes (HLMs); from tissue; host or cells: pooled human liver microsomes
T2 sequence (P08684 whole entry): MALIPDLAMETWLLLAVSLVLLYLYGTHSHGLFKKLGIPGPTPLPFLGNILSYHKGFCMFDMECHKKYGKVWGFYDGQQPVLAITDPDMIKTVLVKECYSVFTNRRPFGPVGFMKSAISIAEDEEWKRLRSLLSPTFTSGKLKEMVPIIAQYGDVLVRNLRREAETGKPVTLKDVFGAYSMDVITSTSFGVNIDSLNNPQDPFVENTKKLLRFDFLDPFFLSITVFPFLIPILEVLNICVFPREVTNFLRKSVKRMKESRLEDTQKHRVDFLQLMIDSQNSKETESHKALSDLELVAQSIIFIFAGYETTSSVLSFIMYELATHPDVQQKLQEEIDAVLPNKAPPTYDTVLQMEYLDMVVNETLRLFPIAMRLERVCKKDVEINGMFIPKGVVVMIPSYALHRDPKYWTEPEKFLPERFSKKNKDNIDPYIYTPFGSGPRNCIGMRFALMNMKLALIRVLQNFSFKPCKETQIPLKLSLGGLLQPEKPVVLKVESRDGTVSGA
Description: as §3

CYP2C9 = system: T3, CYP2C9; format: in vitro ADME; settings: human, microsomes, 100 μM, pH 7.4
T3 construct: marker reactions with specific substrates in human liver microsomes (HLMs); from tissue; host or cells: pooled human liver microsomes
Description: as §1, with “[2017]). Incubations were performed in triplicate, and results were represented with the mean value. The final microsomal protein concentration and incubation times for the different probe reactions are summarized in Table 1 based on previous studies (Lang et al. [2017]; Wang et al. [2019]). The effect of anemarsaponin BII on the activity of CYPs was evaluated in pooled human liver microsomes according to previous studies (Dong et al. [2018]; Wang et al. [2019]). The residual activity of eight CYP isoforms was first detected with 100 μM anemarsaponin BII in HLMs. Next, CYPs of which the activity was inhibited by anemarsaponin BII was incubated with 0, 2.5, 5, 10, 25, 50 and 100 μM anemarsaponin BII to explore the values of half inhibition concentration (IC50). Additionally, 0–50 μM anemarsaponin BII was incubated with various concentration of probe substrates (20–100 μM testosterone for CYP3A4, 10–50 μM dextromethorphan for CYP2D6, and 25–250 μM chlorzoxazone for CYP2E1) to obtain the values of KI.” for “[2017]).”

CYP2C19 = system: T4, CYP2C19; format: in vitro ADME; settings: human, microsomes, 100 μM, pH 7.4
T4 construct: marker reactions with specific substrates in human liver microsomes (HLMs); from tissue; host or cells: pooled human liver microsomes
Description: as §1, with “[2017]). Incubations were performed in triplicate, and results were represented with the mean value. The final microsomal protein concentration and incubation times for the different probe reactions are summarized in Table 1 based on previous studies (Lang et al. [2017]; Wang et al. [2019]). The effect of anemarsaponin BII on the activity of CYPs was evaluated in pooled human liver microsomes according to previous studies (Dong et al. [2018]; Wang et al. [2019]). The residual activity of eight CYP isoforms was first detected with 100 μM anemarsaponin BII in HLMs. Next, CYPs of which the activity was inhibited by anemarsaponin BII was incubated with 0, 2.5, 5, 10, 25, 50 and 100 μM anemarsaponin BII to explore the values of half inhibition concentration (IC50). Additionally, 0–50 μM anemarsaponin BII was incubated with various concentration of probe substrates (20–100 μM testosterone for CYP3A4, 10–50 μM dextromethorphan for CYP2D6, and 25–250 μM chlorzoxazone for CYP2E1) to obtain the values of KI.” for “[2017]).”

CYP1A2 = system: T5, CYP1A2; format: in vitro ADME; settings: human, microsomes, 100 μM, pH 7.4
T5 construct: marker reactions with specific substrates in human liver microsomes (HLMs); from tissue; host or cells: pooled human liver microsomes
Description: as §1, with “[2017]). Incubations were performed in triplicate, and results were represented with the mean value. The final microsomal protein concentration and incubation times for the different probe reactions are summarized in Table 1 based on previous studies (Lang et al. [2017]; Wang et al. [2019]). The effect of anemarsaponin BII on the activity of CYPs was evaluated in pooled human liver microsomes according to previous studies (Dong et al. [2018]; Wang et al. [2019]). The residual activity of eight CYP isoforms was first detected with 100 μM anemarsaponin BII in HLMs. Next, CYPs of which the activity was inhibited by anemarsaponin BII was incubated with 0, 2.5, 5, 10, 25, 50 and 100 μM anemarsaponin BII to explore the values of half inhibition concentration (IC50). Additionally, 0–50 μM anemarsaponin BII was incubated with various concentration of probe substrates (20–100 μM testosterone for CYP3A4, 10–50 μM dextromethorphan for CYP2D6, and 25–250 μM chlorzoxazone for CYP2E1) to obtain the values of KI.” for “[2017]).”

CYP2C8 = system: T6, CYP2C8; format: in vitro ADME; settings: human, microsomes, 100 μM, pH 7.4
T6 construct: marker reactions with specific substrates in human liver microsomes (HLMs); from tissue; host or cells: pooled human liver microsomes
Description: as §1, with “[2017]). Incubations were performed in triplicate, and results were represented with the mean value. The final microsomal protein concentration and incubation times for the different probe reactions are summarized in Table 1 based on previous studies (Lang et al. [2017]; Wang et al. [2019]). The effect of anemarsaponin BII on the activity of CYPs was evaluated in pooled human liver microsomes according to previous studies (Dong et al. [2018]; Wang et al. [2019]). The residual activity of eight CYP isoforms was first detected with 100 μM anemarsaponin BII in HLMs. Next, CYPs of which the activity was inhibited by anemarsaponin BII was incubated with 0, 2.5, 5, 10, 25, 50 and 100 μM anemarsaponin BII to explore the values of half inhibition concentration (IC50). Additionally, 0–50 μM anemarsaponin BII was incubated with various concentration of probe substrates (20–100 μM testosterone for CYP3A4, 10–50 μM dextromethorphan for CYP2D6, and 25–250 μM chlorzoxazone for CYP2E1) to obtain the values of KI.” for “[2017]).”

CYP2A6 = system: T7, CYP2A6; format: in vitro ADME; settings: human, microsomes, 100 μM, pH 7.4
T7 construct: marker reactions with specific substrates in human liver microsomes (HLMs); from tissue; host or cells: pooled human liver microsomes
Description: as §1, with “[2017]). Incubations were performed in triplicate, and results were represented with the mean value. The final microsomal protein concentration and incubation times for the different probe reactions are summarized in Table 1 based on previous studies (Lang et al. [2017]; Wang et al. [2019]). The effect of anemarsaponin BII on the activity of CYPs was evaluated in pooled human liver microsomes according to previous studies (Dong et al. [2018]; Wang et al. [2019]). The residual activity of eight CYP isoforms was first detected with 100 μM anemarsaponin BII in HLMs. Next, CYPs of which the activity was inhibited by anemarsaponin BII was incubated with 0, 2.5, 5, 10, 25, 50 and 100 μM anemarsaponin BII to explore the values of half inhibition concentration (IC50). Additionally, 0–50 μM anemarsaponin BII was incubated with various concentration of probe substrates (20–100 μM testosterone for CYP3A4, 10–50 μM dextromethorphan for CYP2D6, and 25–250 μM chlorzoxazone for CYP2E1) to obtain the values of KI.” for “[2017]).”

CYP2D6 [5] = target: T8, CYP2D6 (Homo sapiens, UniProt P10635); test: CYP2D6 inhibition in pooled human liver microsomes (dextromethorphan O-demethylation); format: in vitro ADME
T8 construct: marker reactions with specific substrates in human liver microsomes (HLMs); from tissue; host or cells: pooled human liver microsomes
T8 sequence (P10635 whole entry): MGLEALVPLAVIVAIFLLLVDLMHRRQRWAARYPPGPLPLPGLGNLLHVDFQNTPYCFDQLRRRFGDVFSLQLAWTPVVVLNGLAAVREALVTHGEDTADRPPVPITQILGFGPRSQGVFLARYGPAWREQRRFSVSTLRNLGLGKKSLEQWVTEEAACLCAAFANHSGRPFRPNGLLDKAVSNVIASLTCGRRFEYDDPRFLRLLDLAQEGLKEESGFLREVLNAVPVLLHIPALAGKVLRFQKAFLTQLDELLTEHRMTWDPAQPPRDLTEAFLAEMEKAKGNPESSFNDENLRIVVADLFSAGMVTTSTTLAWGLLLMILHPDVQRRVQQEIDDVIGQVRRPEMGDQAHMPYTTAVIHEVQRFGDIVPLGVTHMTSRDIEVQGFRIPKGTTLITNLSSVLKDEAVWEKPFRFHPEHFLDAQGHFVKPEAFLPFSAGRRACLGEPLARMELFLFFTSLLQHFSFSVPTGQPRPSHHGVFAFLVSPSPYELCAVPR
Description: as §1
(§4) Incubations were performed in triplicate, and results were represented with the mean value. […]
(§5) The effect of anemarsaponin BII on the activity of CYPs was evaluated in pooled human liver microsomes according to previous studies (Dong et al. [2018]; Wang et al. [2019]). The residual activity of eight CYP isoforms was first detected with 100 μM anemarsaponin BII in HLMs. […]
as §2, with “reaction.” for “reaction. The mechanism of the inhibition was inspected using the Lineweaver–Burk plots and the enzyme inhibition models.”

CYP2D6 [6] = target: T8, CYP2D6; test: Time-dependent inhibition of CYP2D6 in HLMs; format: in vitro ADME; settings: 20 μM anemarsaponin BII, data not shown
Description: as §3

CYP3A4 [7] = target: T2, CYP3A4; test: CYP3A4 inhibition in pooled human liver microsomes (testosterone 6β-hydroxylation); format: in vitro ADME
Description: as §1, §4, §5
as §2, with “reaction.” for “reaction. The mechanism of the inhibition was inspected using the Lineweaver–Burk plots and the enzyme inhibition models.”

[8] = rat, in vivo; cited from earlier work
[9] = 100 μM anemarsaponin BII, residual activity
[10] = HLMs, 0-100 μM anemarsaponin BII

T1 sequence (P05181 whole entry): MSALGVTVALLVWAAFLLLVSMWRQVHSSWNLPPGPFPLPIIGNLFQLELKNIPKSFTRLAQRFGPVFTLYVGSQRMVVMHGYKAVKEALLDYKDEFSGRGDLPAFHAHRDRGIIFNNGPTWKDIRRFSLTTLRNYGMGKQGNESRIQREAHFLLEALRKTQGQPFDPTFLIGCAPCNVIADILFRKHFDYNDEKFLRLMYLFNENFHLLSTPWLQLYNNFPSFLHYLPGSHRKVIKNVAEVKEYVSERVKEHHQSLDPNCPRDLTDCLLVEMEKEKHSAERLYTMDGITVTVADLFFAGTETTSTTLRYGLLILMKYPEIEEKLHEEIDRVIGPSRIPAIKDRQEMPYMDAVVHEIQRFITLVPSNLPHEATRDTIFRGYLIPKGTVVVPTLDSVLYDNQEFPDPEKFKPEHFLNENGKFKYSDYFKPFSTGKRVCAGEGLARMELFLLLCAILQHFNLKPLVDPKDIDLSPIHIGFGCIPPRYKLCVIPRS

## CC(CCC1(O)OC2CC3C4CCC5CC(OC6OC(CO)C(O)C(O)C6OC6OC(CO)C(O)C(O)C6O)CCC5(C)C4CCC3(C)C2C1C)COC1OC(CO)C(O)C(O)C1O (stereo not shown) [anemarsaponin BII, Anemarsaponin BII]
CYP2E1 [1]; [9]
  activity of CYP2E1 decreased to (relative to untreated HLMs): 23.45%
CYP2E1 [1]; HLMs
  inhibition model CYP2E1 (Lineweaver–Burk): competitive
  IC50: 19.7 µM
CYP2E1 [1]; HLMs, 25–250 μM chlorzoxazone, competitive model
  Ki: 9.82 µM
CYP2E1 [1]; human, pooled human liver microsomes, pH 7.4, probe chlorzoxazone (6-hydroxylation), HLMs
  IC50: 19.3 µM
[2]
  Cmax: 271.22 ng/mL
  t1/2: 3.21 h
CYP2E1 [3]
  effect of incubation time on inhibition of CYP2E1: not affected by the incubation time
CYP3A4 [4]; 20 μM anemarsaponin BII
  effect of incubation time on inhibition of CYP3A4: increased with the incubation time
CYP3A4 [4]; human, human liver microsomes, NADPH, 0–50 μM anemarsaponin BII, 0-30 min, non-linear regression
  kinact: 0.000883 s⁻¹
CYP2C9
  effect on activity of CYP2C9: only the activity of CYP3A4, 2D6 and 2E1 was significantly inhibited
CYP2C19
  effect on activity of CYP2C19: only the activity of CYP3A4, 2D6 and 2E1 was significantly inhibited
CYP1A2
  effect on activity of CYP1A2: only the activity of CYP3A4, 2D6 and 2E1 was significantly inhibited
CYP2C8
  effect on activity of CYP2C8: only the activity of CYP3A4, 2D6 and 2E1 was significantly inhibited
CYP2A6
  effect on activity of CYP2A6: only the activity of CYP3A4, 2D6 and 2E1 was significantly inhibited
CYP2D6 [5]; [9]
  activity of CYP2D6 decreased to (relative to untreated HLMs): 18.79%
CYP2D6 [5]; HLMs
  inhibition model CYP2D6 (Lineweaver–Burk): competitive
CYP2D6 [5]; [10]
  IC50: 16.3 µM
CYP2D6 [5]; HLMs, 10–50 μM dextromethorphan, competitive model
  Ki: 8.26 µM
CYP2D6 [6]
  effect of incubation time on inhibition of CYP2D6: not affected by the incubation time
CYP3A4 [7]; [9]
  activity of CYP3A4 decreased to (relative to untreated HLMs): 15.65%
CYP3A4 [7]; HLMs
  inhibition model CYP3A4 (Lineweaver–Burk): non-competitive
CYP3A4 [7]; [10]
  IC50: 13.7 µM
CYP3A4 [7]; HLMs, 20–100 μM testosterone, non-competitive model
  Ki: 6.72 µM
[8]
  half-life (t1/2): 2.7 h
